What was measured:
Experiment in all cases: relative viability (nuclei count vs DMSO), 5 days (fraction); higher = more cells survive
[1] = compound: C[C@]12O[C@H](C[C@]1(O)CO)n1c3ccccc3c3c4c(c5c6ccccc6n2c5c31)CNC4=O [Lestaurtinib] + Nc1ncn([C@H]2C[C@H](O)[C@@H](CO)O2)c(=O)n1 [Decitabine] (partner 2 µM)
Outline: (§1)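 Lung cancer cell lines in 1536-well plates got either a single drug or a fixed anchor-drug dose together with five library-drug doses (not always all listed) in √10 steps, by pin tool, on the day after seeding. Nuclei were counted after 5 days, and relative viability is the treated-to-vehicle ratio of nuclei counts. Values are medians of duplicate plates.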

[2] = compound: C1/C(=C\C2=CC=CS2)/C(=O)/C(=C/C3=CC=CS3)/C1 + Nc1nc2[nH]cc(CCc3ccc(C(=O)N[C@@H](CCC(=O)O)C(=O)O)cc3)c2c(=O)[nH]1 [Pemetrexed] (partner 0.2 µM)
Outline: as §1

Lestaurtinib + Alpelisib = compound: C[C@]12O[C@H](C[C@]1(O)CO)n1c3ccccc3c3c4c(c5c6ccccc6n2c5c31)CNC4=O [Lestaurtinib] + Cc1nc(NC(=O)N2CCC[C@H]2C(N)=O)sc1-c1ccnc(C(C)(C)C(F)(F)F)c1 [Alpelisib] (partner 2 µM)
Outline: as §1

[3] = compound: C1/C(=C\C2=CC=CS2)/C(=O)/C(=C/C3=CC=CS3)/C1 + CC(=O)Nc1cccc(-n2c(=O)n(C3CC3)c(=O)c3c(Nc4ccc(I)cc4F)n(C)c(=O)c(C)c32)c1 [Trametinib] (partner 0.02 µM)
Outline: as §1

Cell Line | relative viability ([1]; first compound 0.005 µM) | relative viability ([1]; first compound 0.01581 µM) | relative viability ([1]; first compound 0.05 µM) | relative viability ([1]; first compound 0.1581 µM) | relative viability ([1]; first compound 0.5 µM) | relative viability ([2]; first compound 0.2 µM) | relative viability ([2]; first compound 0.6325 µM) | relative viability ([2]; first compound 2 µM) | relative viability ([2]; first compound 6.325 µM) | relative viability ([2]; first compound 20 µM) | relative viability (Lestaurtinib + Alpelisib; first compound 0.005 µM) | relative viability (Lestaurtinib + Alpelisib; first compound 0.01581 µM) | relative viability (Lestaurtinib + Alpelisib; first compound 0.05 µM) | relative viability (Lestaurtinib + Alpelisib; first compound 0.1581 µM) | relative viability (Lestaurtinib + Alpelisib; first compound 0.5 µM) | relative viability ([3]; first compound 0.2 µM) | relative viability ([3]; first compound 0.6325 µM) | relative viability ([3]; first compound 2 µM) | relative viability ([3]; first compound 6.325 µM) | relative viability ([3]; first compound 20 µM)
NCI-H2170 | 0.461 | 0.489 | 0.441 | 0.43 | 0.383 | 0.283 | 0.246 | 0.259 | 0.245 | 0.256 | 0.698 | 0.707 | 0.592 | 0.699 | 0.404 | 0.918 | 0.92 | 0.863 | 0.78 | 0.867
NCI-H522 | 0.683 | 0.71 | 0.811 | 0.652 | 0.537 | 1.04 | 0.916 | 1.17 | 0.988 | 0.957 | – | – | – | – | – | 0.726 | 0.728 | 0.715 | 0.739 | 0.767
LCLC-97TM1 | – | 0.242 | 0.207 | 0.245 | 0.257 | 0.175 | 0.178 | 0.167 | 0.165 | 0.187 | 0.256 | 0.189 | 0.171 | 0.138 | 0.148 | 0.216 | 0.198 | 0.221 | 0.174 | 0.218
NCI-H1299 | – | – | – | – | – | – | – | – | – | – | 1.14 | 1.05 | 0.559 | 0.614 | 0.713 | – | – | – | – | –
NCI-H3122 | 0.47 | 0.582 | 0.465 | 0.453 | 0.424 | 0.195 | 0.213 | 0.206 | 0.191 | 0.206 | 0.92 | 0.983 | 0.932 | 0.841 | 0.48 | 0.25 | 0.222 | 0.226 | 0.233 | 0.251
NCI-H1395 | 0.778 | 0.765 | 0.774 | 0.684 | 0.453 | 0.889 | 0.912 | 1.08 | 0.819 | 0.971 | 1.15 | 1.14 | 0.795 | 0.813 | 0.483 | 1.13 | 0.996 | 1.08 | 0.88 | 1.09
NCI-H2009 | 0.373 | 0.392 | 0.399 | 0.36 | 0.347 | 1.05 | 1.01 | 1 | – | 0.977 | 1.27 | 1.12 | 0.971 | 1.05 | 0.673 | 0.284 | 0.308 | 0.317 | – | 0.272
NCI-H1651 | 0.63 | 0.775 | 0.59 | 0.653 | 0.406 | 0.582 | 0.666 | 0.778 | 0.495 | 0.58 | 1.1 | 0.889 | 0.913 | 0.845 | 0.529 | 0.861 | 0.775 | 0.816 | 0.807 | 0.843
HARA | 0.699 | 0.749 | 0.613 | 0.513 | 0.214 | 0.249 | 0.254 | 0.228 | 0.222 | 0.241 | 0.769 | 0.825 | 0.639 | 0.487 | 0.176 | 0.622 | 0.78 | 0.663 | 0.937 | 0.829
NCI-H1944 | 0.419 | 0.481 | 0.442 | 0.463 | 0.317 | 0.619 | 0.591 | 0.603 | – | 0.572 | 0.82 | 0.745 | 0.61 | 0.41 | 0.383 | 0.393 | 0.421 | 0.424 | – | 0.388
Calu-6 | – | – | – | – | – | – | – | – | – | – | 1.05 | 0.873 | 0.501 | 0.381 | 0.164 | – | – | – | – | –
NCI-H1703 | – | – | – | – | – | – | – | – | – | – | 0.293 | 0.288 | 0.283 | 0.2 | 0.117 | – | – | – | – | –
NCI-H1650 | 0.441 | 0.623 | 0.457 | 0.506 | 0.54 | 0.35 | 0.392 | 0.42 | 0.373 | 0.367 | – | – | – | – | – | 0.619 | 0.679 | 0.548 | 0.627 | 0.516
NCI-H727 | 0.957 | 0.87 | 0.882 | – | 0.579 | – | – | – | – | – | 0.627 | 0.481 | 0.554 | 0.49 | 0.155 | 0.379 | 0.414 | 0.373 | – | 0.374
NCI-H2342 | 0.713 | 0.76 | 0.742 | 0.722 | 0.77 | 0.781 | 0.764 | 0.838 | 0.718 | 0.747 | – | – | – | – | – | 0.859 | 0.819 | 0.801 | 0.672 | 0.899
ChaGo-K-1 | 0.553 | 0.574 | 0.51 | 0.463 | 0.461 | 0.259 | 0.26 | 0.278 | 0.224 | 0.25 | – | – | – | – | – | 0.9 | 0.949 | 0.838 | 0.675 | 0.478
CAL-12T | – | – | – | – | – | 1.28 | 1.25 | 1.24 | 1.16 | 1.07 | 1.12 | 1.3 | 1.19 | 0.502 | 0.385 | 0.376 | 0.365 | 0.316 | 0.261 | 0.307
NCI-H2228 | – | – | – | – | – | 0.369 | 0.333 | 0.4 | 0.33 | 0.326 | 0.806 | 0.648 | 0.582 | 0.32 | 0.205 | 0.559 | 0.517 | 0.414 | 0.43 | 0.424
SW 900 | 0.405 | 0.372 | 0.451 | 0.624 | 0.541 | 0.481 | 0.525 | 0.49 | 0.399 | 0.482 | – | – | – | – | – | 0.739 | 0.752 | 0.815 | 0.308 | 0.734
ABC-1 | 1.31 | 1.36 | 1.12 | 0.96 | 0.66 | – | – | – | – | – | 1.06 | 1.02 | 0.845 | 0.658 | 0.262 | – | – | – | – | –
NCI-H1648 | – | 0.535 | – | 0.762 | 0.512 | 0.859 | 0.718 | 0.79 | 0.609 | 0.569 | – | – | – | – | – | 0.604 | 0.628 | 0.435 | 0.417 | 0.256
IA-LM | – | – | – | – | – | – | – | – | – | – | 0.967 | 0.964 | 1.13 | 1.05 | 0.28 | – | – | – | – | –
A549 | 0.262 | 0.253 | 0.279 | 0.318 | 0.185 | – | – | – | – | – | 0.802 | 0.638 | 0.518 | 0.263 | 0.0616 | – | – | – | – | –

From the supplement of paper PMC10307832
